{"source": "patent US9439906B2", "about": "“Dosing regimen associated with long acting injectable paliperidone esters” (Janssen Pharmaceutica NV, priority 2007, dated 2016)", "assay_type_in_all_cases": "in vivo, human", "key": {"[1]": {"assay": "Safety in phase 3 placebo-controlled study R092670-PSY-3007", "details": "for average increase in body weight: placebo −0.2 kg; for Akathisia (EPS-related adverse event): placebo 4.9%; for mean change in BMI from baseline to end point: placebo −0.1", "method": "Safety was monitored by the evaluation of adverse events, extrapyramidal symptom (EPS) rating scales (Abnormal Involuntary Movement Scale [AIMS], Barnes Akathisia Rating Scale [BARS], Simpson and Angus Rating Scale [SAS]) scores, clinical laboratory test results, vital signs measurements, electrocardiograms (ECGs), and physical examination findings. In addition, the tolerability of injections was assessed; the investigators evaluated injection sites and the subjects assessed injection pain.\nThe number and percentage of subjects with treatment-emergent adverse events were summarized. Adverse events of potential clinical interest were summarized separately, including events related to EPS or changes in serum glucose or prolactin levels.\nChanges from baseline in clinical laboratory tests, vital sign measurements, ECGs, body weight, BMI, and EPS scale scores were summarized by treatment group. Prolactin levels were summarized by sex. Subjects with potentially abnormal values or changes in clinical laboratory tests, vital signs, orthostatic parameters, and ECG parameters were summarized based on predefined criteria. Frequency distributions were presented for the investigator's evaluation of the injection site, and descriptive statistics were presented for VAS scores corresponding to the subject's evaluation of injection pain."}, "[2]": {"assay": "Pharmacokinetic profile of gluteal versus deltoid i.m. injections of paliperidone palmitate 100 mg-eq. (four injections)", "method": "This study was performed to characterize and compare the pharmacokinetic profile of paliperidone palmitate (formulated as described above) following four intramuscular injections in the deltoid or gluteal muscle.\nPlasma samples for pharmacokinetic analyses were collected."}, "[3]": {"assay": "Comparison of single-dose PK profile in the deltoid to that in the gluteal (summary of phase 1 studies)", "method": "The plasma concentration-time profile of paliperidone after single i.m. injection of the paliperidone palmitate formulation at 25-150 mg-eq. has been documented in several studies (Table 4). Details of how the comparison of injection sites study and the dose proportionality studies were performed are provided in Examples 2 and 3."}}, "data": [{"compound": "CCCCCCCCCCCCCCCC(=O)OC1CCCn2c1nc(C)c(CCN1CCC(c3noc4cc(F)ccc34)CC1)c2=O", "note": "(racemic) [paliperidone palmitate, (±)-3-[2-[4-(6-fluoro-1,2-benzisoxazol-3-yl)-1-piperidinyl]ethyl]-6,7,8,9-tetrahydro-2-methyl-4-oxo-4H-pyrido[1,2-α]pyrimidin-9-yl hexadecanoate]", "values": [{"measurement": "1 or more serious TEAE, (%)", "setting": "[1]; 25 mg eq. group (N = 160)", "result": "(9.4) %"}, {"measurement": "Possibly related TEAE, (%)", "setting": "[1]; 25 mg eq. group (N = 160)", "result": "(28.1) %"}, {"measurement": "TEAE leading to permanent stop, (%)", "setting": "[1]; 25 mg eq. group (N = 160)", "result": "(6.3) %"}, {"measurement": "TEAE, (%)", "setting": "[1]; 25 mg eq. group (N = 160)", "result": "(63.1) %"}, {"measurement": "average increase in body weight", "setting": "[1]; 25 mg eq. group, 13 weeks", "result": 0.4, "unit": "kg"}, {"measurement": "Akathisia (EPS-related adverse event)", "setting": "[1]; 25 mg eq. group", "result": 1.3, "unit": "%"}, {"measurement": "mean change in BMI from baseline to end point", "setting": "[1]; 25 mg eq. group", "result": 0.1, "unit": "kg/m^2"}, {"measurement": "1 or more serious TEAE, (%)", "setting": "[1]; 100 mg eq. group (N = 165)", "result": "(13.3) %"}, {"measurement": "Possibly related TEAE, (%)", "setting": "[1]; 100 mg eq. group (N = 165)", "result": "(29.7) %"}, {"measurement": "TEAE leading to permanent stop, (%)", "setting": "[1]; 100 mg eq. group (N = 165)", "result": "(6.1) %"}, {"measurement": "TEAE, (%)", "setting": "[1]; 100 mg eq. group (N = 165)", "result": "(60.0) %"}, {"measurement": "average increase in body weight", "setting": "[1]; 100 mg eq. group, 13 weeks", "result": 0.7, "unit": "kg"}, {"measurement": "Akathisia (EPS-related adverse event)", "setting": "[1]; 100 mg eq. group", "result": 4.8, "unit": "%"}, {"measurement": "mean change in BMI from baseline to end point", "setting": "[1]; 100 mg eq. group", "result": 0.3, "unit": "kg/m^2"}, {"measurement": "tolerability", "setting": "[1]; 150 mg eq. deltoid then 25, 100 or 150 mg eq. Days 8, 36, 64, 13 weeks", "result": "generally well tolerated"}, {"measurement": "1 or more serious TEAE, (%)", "setting": "[1]; 150 mg eq. group (N = 163)", "result": 8.0, "unit": "%"}, {"measurement": "Possibly related TEAE, (%)", "setting": "[1]; 150 mg eq. group (N = 163)", "result": 31.3, "unit": "%"}, {"measurement": "TEAE leading to death, (%)", "setting": "[1]; 150 mg eq. group (N = 163)", "result": 0.6, "unit": "%"}, {"measurement": "TEAE leading to permanent stop, (%)", "setting": "[1]; 150 mg eq. group (N = 163)", "result": 8.0, "unit": "%"}, {"measurement": "TEAE, (%)", "setting": "[1]; 150 mg eq. group (N = 163)", "result": 63.2, "unit": "%"}, {"measurement": "average increase in body weight", "setting": "[1]; 150 mg eq. group, 13 weeks", "result": 1.4, "unit": "kg"}, {"measurement": "Akathisia (EPS-related adverse event)", "setting": "[1]; 150 mg eq. group", "result": 5.5, "unit": "%"}, {"measurement": "mean change in BMI from baseline to end point", "setting": "[1]; 150 mg eq. group", "result": 0.5, "unit": "kg/m^2"}, {"measurement": "Local injection site tolerability", "setting": "[1]; all dose groups", "result": "good"}, {"measurement": "incidence of treatment-emergent EPS-related adverse events", "setting": "[1]; all dose groups", "result": "low and comparable to placebo"}, {"measurement": "ECG: clinically significant QTc prolongation", "setting": "[1]; doses up to 150 mg eq.", "result": "did not demonstrate evidence of clinically significant QTc prolongation"}, {"measurement": "subjects with maximum QTcLD value >480 ms or maximal change in QTcLD >60 ms", "setting": "[1]; during the study", "result": "No subject"}, {"measurement": "subjects with weight increase of at least 7% relative to baseline", "setting": "[1]; highest dose (150 mg eq.), placebo 5%", "result": 13, "unit": "%"}, {"measurement": "prolactin levels", "setting": "[1]; versus placebo, largest increase in the 150 mg eq. group", "result": "increases in prolactin levels were observed with greater frequency"}, {"measurement": "median AUC∞, deltoid versus gluteal", "setting": "[2]; after four injections", "result": "similar"}, {"measurement": "Relative exposure after the fourth injection versus after the second injection", "setting": "[2]; both deltoid and gluteal", "result": "slightly lower"}, {"measurement": "increase in Cmax versus dose", "setting": "[3]; both injection sites, doses greater than 50 mg eq.", "result": "slightly less than dose proportional"}, {"measurement": "median apparent half-life between injection sites", "setting": "[3]; single dose, deltoid vs gluteal", "result": "comparable"}, {"measurement": "total exposure (AUC∞) of paliperidone versus dose", "setting": "[3]; single-dose 25 to 150 mg eq., deltoid and gluteal", "result": "increased proportionally with dose"}]}]}
